A value given as a limit tells only on which side of the number the result lay.

For the assay, the target named is human NLRP3 (Homo sapiens, UniProt Q96P20). Put plainly: Human PBMC NLRP3 Assay (LPS priming, ATP stimulation, cytokine measurement). In kind it is cell-based. The arrangement: host or cells: human PBMCs (A2); human whole blood from healthy volunteers (A3). As to conditions: for IC50: human PBMC, LPS + ATP. Summed up:
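Human PBMCs (5×10^4/well) primed with 100 ng/ml LPS for 4 h, then given compound for 30 min and stimulated with 5 mM ATP for 1 h at 37° C. Supernatant cytokines measured on the Mesoscale platform to give IC50. For TNFα selectivity, compound was added 30 min before LPS priming.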

Sequence of human NLRP3 (Q96P20 whole entry): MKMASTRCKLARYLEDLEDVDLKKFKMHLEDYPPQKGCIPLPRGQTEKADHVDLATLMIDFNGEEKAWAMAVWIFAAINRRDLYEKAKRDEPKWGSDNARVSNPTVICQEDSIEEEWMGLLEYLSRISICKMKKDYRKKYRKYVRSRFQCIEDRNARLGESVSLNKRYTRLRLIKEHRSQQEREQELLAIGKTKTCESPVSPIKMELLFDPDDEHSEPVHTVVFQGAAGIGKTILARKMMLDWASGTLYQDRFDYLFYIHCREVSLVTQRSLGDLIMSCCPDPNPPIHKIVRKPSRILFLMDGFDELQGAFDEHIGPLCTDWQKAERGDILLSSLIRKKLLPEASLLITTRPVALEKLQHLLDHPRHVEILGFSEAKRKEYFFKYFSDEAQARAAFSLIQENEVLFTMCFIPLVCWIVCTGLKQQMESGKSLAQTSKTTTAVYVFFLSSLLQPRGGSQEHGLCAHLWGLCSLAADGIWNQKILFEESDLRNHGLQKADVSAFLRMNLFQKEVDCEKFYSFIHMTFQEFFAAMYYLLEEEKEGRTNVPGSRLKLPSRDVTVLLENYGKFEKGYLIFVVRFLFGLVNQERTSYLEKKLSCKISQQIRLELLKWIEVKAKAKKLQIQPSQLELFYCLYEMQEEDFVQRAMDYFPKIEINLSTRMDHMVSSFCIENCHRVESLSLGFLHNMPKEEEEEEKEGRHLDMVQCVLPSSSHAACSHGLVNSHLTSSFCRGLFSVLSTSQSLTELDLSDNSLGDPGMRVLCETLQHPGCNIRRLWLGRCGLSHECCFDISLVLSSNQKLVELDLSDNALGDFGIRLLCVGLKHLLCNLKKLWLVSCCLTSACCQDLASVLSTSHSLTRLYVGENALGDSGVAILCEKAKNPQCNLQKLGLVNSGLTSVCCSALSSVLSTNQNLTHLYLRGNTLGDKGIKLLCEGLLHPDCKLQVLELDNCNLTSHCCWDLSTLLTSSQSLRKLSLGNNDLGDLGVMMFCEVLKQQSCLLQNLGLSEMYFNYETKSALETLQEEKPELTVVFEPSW

In the case of `C[C@@H]1CCN(c2nnn[nH]2)C[C@H](NC(=O)N(C)c2ccc(Cl)cc2)C1` (single isomer, unassigned) [4A*], the half-maximal inhibitory concentration (IC50) is, setting by setting: (Table B, activity class) less than 10 nM; (Table C) 6.8 nM. For the setting “relative to Comparative Example B1”, the “fold improvement in potency (PBMC IC50)” value is more than 700 fold.

For `C[C@@H]1CCN(c2nnn[nH]2)C[C@H](NC(=O)N(C)c2ccc(OC(F)(F)F)cc2)C1` (single isomer, unassigned) [10A*], the IC50 is, setting by setting: (Table B, activity class) less than 10 nM; (Table C) 9.1 nM.

As for `C[C@@H]1CCN(c2nnn[nH]2)C[C@H](NC(=O)N(C)c2ccc(OC(F)F)cc2)C1` (single isomer, unassigned) [11A*], the 50% inhibitory concentration (IC50) reads like this: (Table B, activity class) less than 10 nM; (Table C) 4.2 nM.

Usually IC50 stands for the concentration needed to halve the response being measured.

The values are drawn from patent US20260008768A1, “UREA DERIVATIVES FOR INHIBITING NLRP3 AND USES THEREOF” (VENTUS THERAPEUTICS U.S., INC., priority 2023, published 2026).
